In patent US20160031868A1, “BENZIMIDAZOLONE DERIVATIVES AS BROMODOMAIN INHIBITORS” (GILEAD SCIENCES, INC., priority 2013, published 2016):
Read-outs that look alike come from different tables or passages of the source.

Columns and labels:
[1] = MT-4 proliferation assay in 384-well format (Cell Titer Glo); assay type: cell-based, human; settings: human, MT-4 cells, read-out: CC50 MT4 384
Experimental: Compounds were tested in a standardized high-throughput 384-well assay format. Each compound was serially diluted 3-fold in 100% DMSO in polypropylene 384-well plates using a Biomek FX Workstation, and 0.4 μL compound added to an assay plate containing 40 μL RPMI media. Compounds were arranged in a horizontal pattern, with 10 concentrations per compound, and 8 compounds added per plate. Due to low DMSO tolerability, the final DMSO concentration never exceeded 0.5% (v/v). Each assay plate contained 10 μM Puromycin and 0.5% DMSO in RPMI-1640 as positive and negative controls respectively. MT-4 cells (HTLV-1 transformed, human T lymphoblastoid cells, NIH Aids Reagent program) were added in volumes of 35 μL per well and 2,000 cells per well using a Biotek uFlow Workstation (Biotek, Winooski, Vt.), and the plates subsequently incubated for 5 days at 37° C. in an incubator set at 5% CO2 and 90% humidity.
After 5 days, 22 μL Cell Titer Glo (Promega) was added to the assay plates with a Biotek uFlow Workstation. Plates were subsequently placed on a Perkin Elmer Envision Plate Reader for 5 minutes before the luminescence signal was read. CC50 values were calculated from the compound concentration that caused a 50% decrease in luminescence signal, a measure of toxicity, and calculated by non-linear regression using Pipeline Pilot software (Accelrys, San Diego, Calif.).

BRD4-1 [2] = target: T1, BRD4-1 (Homo sapiens, UniProt O60885); assay: Biochemical HTRF (TR-FRET) assay: BRD4-1 binding to acetylated histone H4 peptide; settings: 200 nM H4 peptide, 60 nM BRD4-1, 60 min at 25 °C; geometric mean; read-out: IC50 HTBS BRD4-1 HTRF
T1 construct: made in house; host or cells: Escherichia coli
Experimental: (§1) Binding of the two tandem bromodomains, BRD4 I and BRD4—2, to an acetylated histone H4 peptide were measured using a homogeneous time resolved fluorescence resonance energy transfer (TR-FRET) assay. The synthetic peptide containing amino acids 1-18 of histone H4 was acetylated at lysine 5, 8, 12, 16 and conjugated to biotin ([…]-GSGSK-biotin) was purchased from Millipore. BRD4_I and BRD4—2 were expressed and purified from Escherichia coli as N-terminal His6-tagged proteins. An XL665 labeled anti-His antibody (Cisbio) was used to specifically bind BRD4 and a cryptate labeled streptavidin protein was used because it specifically recognized the biotinylated H4 peptide. […] Assays were performed in 50 mM Hepes (pH 7.5), 150 mM NaCl, 0.1 mg/ml BSA, 0.01% (v/v) Brij, 0.5% (v/v) DMSO and 200 nM H4 peptide at the following concentrations for each BRD4 isoform: 60 nM BRD4—1 and 120 nM BRD4—2. After an assay reaction time of 60 minutes at 25° C., binding was measured with 2 nM cryptate labeled streptavidin and 10 nM anti-His-XL665 antibody. TR-FRET signal was detected on an Envision plate reader (Ex: 320 nm; Em: 615/665 nm; 100 μs delay and 200 μs read window). Data were normalized based on a positive (2 μM I-BET) and negative (DMSO) controls and IC50 values were calculated from the fit of the dose-response curves to a four-parameter equation. All IC50 values represent geometric mean values of a minimum of four determinations. These assays generally produced results within 3-fold of the reported mean.

BRD4-1 [3] = target: T1, BRD4-1; assay: Biochemical ALPHA assay: binding of BRD4_1 to acetylated histone H4 peptide; settings: 200 nM H4 peptide, 15 nM BRD4_1, 60 min at 25 °C; geometric mean of min. four determinations
Experimental: Binding of the bromodomain BRD4_I to an acetylated histone H4 peptide was measured using a bead based Amplified Luminescent Proximity Homogeneous Assay (ALPHA). The synthetic peptide containing amino acids 1-18 of histone H4 was acetylated at lysine 5, 8, 12, 16 and conjugated to biotin ([…]-GSGSK-biotin) was purchased from Millipore. BRD4_I was expressed and purified from Escherichia coli as an N-terminal Hiss-tagged protein. Nickel-Chelate ALPHA acceptor beads (Perkin Elmer) were used to specifically bind BRD4—1 and ALPHA streptavidin donor beads (Perkin Elmer) were used because they specifically recognized the biotinylated H4 peptide. […] Assays were performed in 50 mM Hepes (pH 7.5), 150 mM NaCl, 0.1 mg/ml BSA, 0.01% (v/v) Brij, 0.5% (v/v) DMSO, 200 nM H4 peptide and 15 nM of BRD4—1 protein. After an assay reaction time of 60 minutes at 25° C., binding was measured with 20 µg/ml streptavidin donor beads and 20 μg/ml nickel-chelate acceptor beads. ALPHA signal was detected on an Envision plate reader ([…]; Em: 570 nm; Ex time: 180 ms). Data were normalized based on a positive (2 μM I-BET) and negative (DMSO) controls and IC50 values were calculated from the fit of the dose-response curves to a four-parameter equation. All IC50 values represent geometric mean values of a minimum of four determinations. These assays generally produced results within 3-fold of the reported mean.

BRD4-2 [4] = target: T2, BRD4-2 (Homo sapiens, UniProt O60885); assay: Biochemical HTRF (TR-FRET) assay: BRD4-2 binding to acetylated histone H4 peptide; settings: 200 nM H4 peptide, 120 nM BRD4-2, 60 min at 25 °C; geometric mean; read-out: IC50 HTBS BRD4-2 HTRF
T2 construct: made in house; host or cells: Escherichia coli
Experimental: as §1

BRD4-1 [5] = target: T1, BRD4-1; assay: BRD4-1 Ligand KI assay (TR-FRET displacement of Cy5 labeled probe); assay type: binding; settings: 10 nM labeled ligand, 2 nM BRD4-1; Ki from IC50 by Cheng and Prusoff; read-out: BRD4-1 Ligand K1
Experimental: Binding of the two tandem bromodomains, BRD4-I and BRD4-2, to a Cy5 labeled probe/ligand (Compound 201-A) were measured using a homogeneous time resolved fluorescence resonance energy transfer (TR-FRET) assay.
(§2) The labeled ligand specifically binds BRD4-1 and BRD4-2 and can be displaced by a small molecule inhibitor that shares a similar or overlapping binding site. BRD4-I and BRD4-2 were expressed and purified from Escherichia coli as N-terminal His6-tagged proteins. A Eu-cryptate labeled anti-His antibody (Perkin Elmer) was used to specifically bind BRD4. […] Assays were performed in 50 mM Hepes (pH 7.5), 150 mM NaCl, 0.1 mg/ml BSA, 0.01% (v/v) Brij, 0.5% (v/v) DMSO and 10 nM labeled ligand at the following concentrations for each BRD4 isoform: 2 nM BRD4-1 and 0.5 nM BRD4-2. After an assay reaction time of 60 minutes at 25° C., binding was measured with 2 nM Eu-cryptate labeled anti-His antibody. TR-FRET signal was detected on an Envision plate reader (Ex: 320 nm; Em: 615/665 nm; 100 μs delay and 200 μs read window). Data were normalized based on a positive (2 μM I-BET) and negative (DMSO) controls and IC50 values were calculated from the fit of the dose-response curves to a four-parameter equation. All IC50 values represent geometric mean values of a minimum of four determinations. The IC50 values were converted to Ki values (dissociation constant for BRD4-inhibitor complex) using the Cheng and Prusoff equation for a competitive inhibitor mode of action. These assays generally produced results within 3-fold of the reported mean.

[6] = system: c-Myc produced in MM1S cells; assay: c-Myc down regulation assay (MSD ELISA) in MM1S cells; assay type: cell-based; settings: Homo sapiens, MM1.S, 24 hrs incubation, geometric mean, read-out: cMYC EC50
Experimental: An enzyme linked immunosorbent assay using the Meso Scale Diagnostic (MSD) technology was used to detect levels of c-Myc produced in MM1S cells (ATCC). MM1S cells were cultured in RPMI-1640 media (Corning), supplemented with 10% FBS (Hyclone), 1% penicillin-streptomycin (Cellgro), 2-mercaptoethanol (Gibco) and seeded onto 384-tissue culture treated filter binding plates (Millipore) at a density of 40K cells/well containing titrations of small molecule inhibitors or DMSO (0.4%) in a volume of 100 μl of media. After an incubation time of 24 hrs, cells were lysed (1× lysis buffer (Thermo) supplemented with protease and phosphatase inhibitor cocktail (Thermo)) and the plates centrifuged (1000 rpm, 1 min) to capture c-Myc on MSD plates coated with a monoclonal c-Myc antibody (Origene). Assay wells were washed (3× Invitrogen wash buffer) and probed with a polyclonal c-Myc antibody (Abcam) and MSD detection antibody solution in order to detect levels of c-Myc on the MSD platform. c-Myc capture was reported in pg/ml based on a standard curve using recombinant c-Myc protein (Prosci). EC50 values were calculated from the fit of the dose-response curves to a four-parameter equation. All EC50 values represent geometric mean values of a minimum of four determinations. These assays generally produced results within 3-fold of the reported mean.

BRD4-2 [7] = target: T2, BRD4-2; assay: BRD4-2 Ligand KI assay (TR-FRET displacement of Cy5 labeled probe); assay type: binding; settings: 10 nM labeled ligand, 0.5 nM BRD4-2; Ki from IC50 by Cheng and Prusoff; read-out: BRD4-2 Ligand K2
Experimental: as §2, with “BRD4-I” for “The labeled ligand specifically binds BRD4-1 and BRD4-2 and can be displaced by a small molecule inhibitor that shares a similar or overlapping binding site. BRD4-I”, “action.” for “action. These assays generally produced results within 3-fold of the reported mean.”

[8] = Table 1, 50% decrease in luminescence signal
[9] = Table 2, 50% decrease in luminescence signal

Compound	IC50 (BRD4-1 [2])	IC50 (BRD4-1 [3])	IC50 (BRD4-2 [4])	Ki (BRD4-1 [5])	EC50 [6]	Ki (BRD4-2 [7])	CC50 at 5 days [1, 8]	CC50 at 5 days [1, 9]
Cc1noc(C)c1-c1cc(-c2c(C)noc2C)c2[nH]c(=O)[nH]c2c1 [Example 3, 4,6-bis(3,5-dimethylisoxazol-4-yl)-1H-benzo[d]imidazol-2(3H)-one]	0.295 µM	0.119 µM	–	–	–	–	0.196 µM	–
Cc1noc(C)c1-c1cc(-c2c(C)noc2C)c2oc(=O)[nH]c2c1 [Example 10, 5,7-bis(3,5-dimethylisoxazol-4-yl)benzo[d]oxazol-2(3H)-one]	0.313 µM	0.196 µM	0.396 µM	–	–	–	1.03 µM	–
Cc1cnn(C)c1-c1cc(-c2c(C)noc2C)cc2[nH]c(=O)n(C)c12 [Example 8, 7-(1,4-dimethyl-1H-pyrazol-5-yl)-5-(3,5-dimethylisoxazol-4-yl)-1-methyl-1H-benzo[d]imidazol-2(3H)-one]	0.511 µM	0.241 µM	0.168 µM	–	–	–	0.117 µM	–
Cc1ccc2ncccc2c1-c1cc(-c2c(C)noc2C)cc2[nH]c(=O)n(C)c12 [Example 7, 5-(3,5-dimethylisoxazol-4-yl)-1-methyl-7-(6-methylquinolin-5-yl)-1H-benzo[d]imidazol-2(3H)-one]	0.121 µM	0.0373 µM	0.101 µM	–	–	–	0.0175 µM	–
Cc1noc(C)c1-c1cc(-c2c(C3CC3)n[nH]c2C2CC2)c2[nH]c(=O)[nH]c2c1 [Example 23, 4-(3,5-dicyclopropyl-1H-pyrazol-4-yl)-6-(3,5-dimethylisoxazol-4-yl)-1H-benzo[d]imidazol-2(3H)-one]	–	–	–	0.0129 µM	0.0132 µM	0.003 µM	–	0.0091 µM
Cc1noc(C)c1-c1cc(S(=O)(=O)NC2CCCC2)c2[nH]c(=O)[nH]c2c1 [Example 1, N-cyclopentyl-6-(3,5-dimethylisoxazol-4-yl)-2-oxo-2,3-dihydro-1H-benzo[d]imidazole-4-sulfonamide]	1.41 µM	–	1.07 µM	–	–	–	1.12 µM	–

Second part, led by results:

IC50 (BRD4-1 [2])	IC50 (BRD4-1 [3])	IC50 (BRD4-2 [4])	Ki (BRD4-1 [5])	EC50 [6]	Ki (BRD4-2 [7])	Compound	CC50 at 5 days [1, 8]	CC50 at 5 days [1, 9]
–	–	–	0.0141 µM	0.176 µM	0.0053 µM	Cc1noc(C)c1-c1cc(C(O)(c2ccccc2)c2ccc3ccc(F)cc3n2)c2[nH]c(=O)[nH]c2c1 (stereo not shown) [Example 33, 6-(3,5-dimethylisoxazol-4-yl)-4-((7-fluoroquinolin-2-yl)(hydroxy)(phenyl)methyl)-1H-benzo[d]imidazol-2(3H)-one]	–	0.0291 µM
–	–	–	0.0816 µM	0.107 µM	0.016 µM	Cc1cccc(C(O)(c2ccccn2)c2cc(-c3c(C)noc3C)cc3[nH]c(=O)[nH]c23)n1 (stereo not shown) [Example 147, 6-(3,5-dimethylisoxazol-4-yl)-4-(hydroxy(6-methylpyridin-2-yl)(pyridin-2-yl)methyl)-1H-benzo[d]imidazol-2(3H)-one]	–	0.0565 µM
–	–	–	0.0118 µM	0.128 µM	0.0059 µM	Cc1noc(C)c1-c1cc(C(O)(c2ccc(F)cn2)c2ccc(F)cc2F)c2[nH]c(=O)[nH]c2c1 (stereo not shown) [Example 39, 4-((2,4-difluorophenyl)(5-fluoropyridin-2-yl)(hydroxy)methyl)-6-(3,5-dimethylisoxazol-4-yl)-1H-benzo[d]imidazol-2(3H)-one]	–	0.0421 µM
